Measured values taken from patent publication US5019575A, “Novel pyridazinone compounds, compositions thereof and method of use” (Orion-yhtyma Oy, priority 1989, dated 1991).
Like-named read-outs stand apart in the source and are kept apart here.

Key:
troponin = test: Retention time in troponin high-performance liquid affinity chromatography (HPLAC) column, calcium dependent binding to troponin; conditions: for Ratio Ca^2+ /EDTA (retention times in troponin-HPLAC column): Ca^2+ solution / EDTA solution; for Retention time in troponin-HPLAC column, Ca^2+ solution: mobile phase with 30 mM calcium; for Retention time in troponin-HPLAC column, Ca^2+ solution / Retention time in troponin-HPLAC column, EDTA solution: flow rate 1 ml/min; for Retention time in troponin-HPLAC column, EDTA solution: mobile phase without calcium (EDTA)
Method: The contraction in cardiac muscle and in vascular smooth muscle is triggered by the binding of calcium to troponin and to calmodulin, respectively. […] Commercially available troponin was coupled to the matrix of SelectiSpher-10™ Activated Tresyl silica HPLAC column (size 10 cm×5 mm). The compounds were run through the column with the flow rate 1 ml/min and detected by UV-spectrophotometrically.

[1] = biological target: T1, cardiac phosphodiesterase III (PDEIII), dog (Canis lupus familiaris, UniProt A0A8I3NYE0); test: Inhibition of cardiac phosphodiesterase III, dog heart enzyme preparation; type: biochemical; conditions: dog heart; read-out: IC50-value, inhibition of cardiac phosphodiesterase III, Dog
T1 construct: enzyme preparation isolated from dog and guinea-pig heart; from tissue; host or cells: dog heart
T1 sequence (A0A8I3NYE0 1-1135): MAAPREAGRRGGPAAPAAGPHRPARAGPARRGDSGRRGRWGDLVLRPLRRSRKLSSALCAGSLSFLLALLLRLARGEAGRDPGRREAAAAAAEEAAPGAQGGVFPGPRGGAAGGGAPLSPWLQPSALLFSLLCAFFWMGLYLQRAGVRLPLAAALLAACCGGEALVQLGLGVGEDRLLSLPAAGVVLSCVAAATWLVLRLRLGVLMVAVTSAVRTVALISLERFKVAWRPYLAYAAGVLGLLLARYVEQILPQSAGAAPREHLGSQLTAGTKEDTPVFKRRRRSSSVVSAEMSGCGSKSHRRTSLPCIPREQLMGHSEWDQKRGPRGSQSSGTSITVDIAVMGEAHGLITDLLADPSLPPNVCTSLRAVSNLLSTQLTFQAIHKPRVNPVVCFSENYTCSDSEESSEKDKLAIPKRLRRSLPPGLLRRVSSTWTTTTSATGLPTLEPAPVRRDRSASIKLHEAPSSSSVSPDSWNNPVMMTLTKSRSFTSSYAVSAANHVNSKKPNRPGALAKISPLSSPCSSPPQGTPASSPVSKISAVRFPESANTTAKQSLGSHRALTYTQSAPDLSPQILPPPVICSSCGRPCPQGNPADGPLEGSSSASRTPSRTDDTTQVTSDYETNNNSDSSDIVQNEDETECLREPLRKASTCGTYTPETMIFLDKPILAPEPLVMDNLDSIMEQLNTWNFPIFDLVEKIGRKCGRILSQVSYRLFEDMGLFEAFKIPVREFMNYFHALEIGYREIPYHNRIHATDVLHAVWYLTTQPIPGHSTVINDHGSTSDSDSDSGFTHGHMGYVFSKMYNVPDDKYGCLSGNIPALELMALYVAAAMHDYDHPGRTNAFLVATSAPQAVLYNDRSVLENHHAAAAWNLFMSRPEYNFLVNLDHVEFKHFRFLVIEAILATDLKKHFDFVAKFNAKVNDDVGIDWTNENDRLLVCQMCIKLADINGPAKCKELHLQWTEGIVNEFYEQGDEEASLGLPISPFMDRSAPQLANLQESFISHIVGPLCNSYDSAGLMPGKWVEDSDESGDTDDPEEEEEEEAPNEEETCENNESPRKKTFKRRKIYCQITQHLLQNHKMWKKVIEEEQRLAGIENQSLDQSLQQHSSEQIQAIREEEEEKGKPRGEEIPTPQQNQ

[2] = test system: guinea-pig papillary muscle; test: Cardiotonic effect in isolated, electrically driven, right ventricular papillary muscle, without and with carbachol; conditions: for EC50: Cavia porcellus, read-out: EC50 cardiotonic effect (A)
Method: The cardiotonic action of the compound was studied in isolated, electrically driven, right ventricular papillary muscle of guinea-pig.
A = experiments carried out without carbachol
B = experiments carried out in the presence of 10 μM carbachol

[3] = test system: guinea-pig papillary muscle; test: Ability to induce tonic contraction in papillary muscle in the absence of extracellular calcium; conditions: drug concentration 100 μM; no extracellular calcium
Method: The cardiotonic action of the compound was studied in isolated, electrically driven, right ventricular papillary muscle of guinea-pig. In order to compare the cardiotonic action based on PDEIII inhibition to that based on the other mechanisms the experiments were carried out in normal Tyrode's bathing solution (Otani et al., Japan. J. Pharmacol. 45, 425, 1987) and also in the solution with carbachol to eliminate the cardiotonic action due to the PDEIII inhibition (Alousi & Johnson, Circulation, 73 (suppl. III), 10-23, 1986).
C = ability to induce tonic contraction in the absence of extracellular
calcium; drug concentration 100 μM

[4] = biological target: T2, cardiac phosphodiesterase III (PDEIII), guinea-pig (Cavia porcellus, UniProt H0VIU9); test: Inhibition of cardiac phosphodiesterase III, guinea-pig heart enzyme preparation; type: biochemical
T2 construct: enzyme preparation isolated from dog and guinea-pig heart; from tissue; host or cells: guinea-pig heart
T2 sequence (H0VIU9 1-1132): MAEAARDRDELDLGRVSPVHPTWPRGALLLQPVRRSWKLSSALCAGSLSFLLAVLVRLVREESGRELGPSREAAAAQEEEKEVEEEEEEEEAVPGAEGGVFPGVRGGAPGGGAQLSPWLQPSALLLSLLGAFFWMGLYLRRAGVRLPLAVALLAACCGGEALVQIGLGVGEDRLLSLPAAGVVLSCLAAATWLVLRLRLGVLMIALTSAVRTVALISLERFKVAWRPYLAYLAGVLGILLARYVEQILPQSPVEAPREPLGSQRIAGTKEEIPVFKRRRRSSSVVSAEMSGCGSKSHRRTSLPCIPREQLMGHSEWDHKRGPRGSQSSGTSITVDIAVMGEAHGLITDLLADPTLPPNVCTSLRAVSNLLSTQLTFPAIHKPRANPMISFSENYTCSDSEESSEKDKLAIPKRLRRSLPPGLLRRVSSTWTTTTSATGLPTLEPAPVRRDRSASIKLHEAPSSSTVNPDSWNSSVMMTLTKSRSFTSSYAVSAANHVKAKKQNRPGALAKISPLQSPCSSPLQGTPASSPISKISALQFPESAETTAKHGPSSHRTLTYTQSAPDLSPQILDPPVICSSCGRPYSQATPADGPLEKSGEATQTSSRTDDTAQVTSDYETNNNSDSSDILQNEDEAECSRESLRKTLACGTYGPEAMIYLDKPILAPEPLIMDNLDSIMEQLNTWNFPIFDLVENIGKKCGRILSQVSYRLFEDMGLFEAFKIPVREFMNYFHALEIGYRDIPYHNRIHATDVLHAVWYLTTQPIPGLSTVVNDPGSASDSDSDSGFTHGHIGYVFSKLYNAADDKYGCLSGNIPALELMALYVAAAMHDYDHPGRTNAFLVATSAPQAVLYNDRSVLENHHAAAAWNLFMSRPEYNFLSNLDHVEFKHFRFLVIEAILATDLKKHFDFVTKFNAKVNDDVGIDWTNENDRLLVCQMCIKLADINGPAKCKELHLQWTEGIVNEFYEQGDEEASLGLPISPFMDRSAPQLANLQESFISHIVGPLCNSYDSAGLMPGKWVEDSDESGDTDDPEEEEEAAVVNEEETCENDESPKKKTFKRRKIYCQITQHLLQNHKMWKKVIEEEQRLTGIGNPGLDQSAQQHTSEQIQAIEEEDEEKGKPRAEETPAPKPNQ
Text: The PDEIII inhibition was studied by using enzyme preparation isolated from dog and guinea-pig heart according to Alajoutsijarvi and Nissinen (Anal. Biochem. 165, 128-132, 1987).

| SMILES | Ratio Ca^2+ /EDTA (retention times in troponin-HPLAC column) (troponin) | Retention time in troponin-HPLAC column, Ca^2+ solution (troponin) [min] | Retention time in troponin-HPLAC column, EDTA solution (troponin) [min] | IC50 [1] [nM] | EC50 [2] [nM] | Ratio B/A of EC50 ([2]; with 10 μM carbachol / without carbachol) | C: ability to induce tonic contraction in the absence of extracellular calcium [3] | IC50 [4] [nM] | EC50 ([2]; without carbachol) [nM] |
| --- | --- | --- | --- | --- | --- | --- | --- | --- | --- |
| N#CC(C#N)=NNc1ccc(C2=NNC(=O)CC2)cc1 [Example 1, 6-[4-(1,1-dicyanomethylidenehydrazino)phenyl]-4,5-dihydropyridazin-3(2H)one] | 1.59 | 3.5 | 2.2 | 270 | 1800 | 2.0 | yes | – | – |
| CC1CC(=O)NN=C1c1ccc(NN=C(C#N)C#N)cc1 (stereo not drawn) [Example 6, 6-[4-(1,1-dicyanomethylidenehydrazino)phenyl]-4,5-dihydro-5-methylpyridazin-3(2H)one] | – | – | – | 62 | 170 | – | – | – | – |
| CC1CC(=O)NN=C1/C=C/c1ccc(NN=C(C#N)C#N)cc1 (stereo not drawn) [Example 33, (E)-6-[2-(4-(1,1-dicyanomethylidenehydrazino)phenyl)ethenyl]-4,5-dihydro-5-methylpyridazin-3(2H)one] | 1.69 | 6.6 | 3.9 | – | – | – | yes | 6 | 300 |
| CC1SC(=O)NN=C1c1ccc(NN=C(C#N)C#N)cc1 (stereo not drawn) [Example 41, 5-[4-(1,1-dicyanomethylidenehydrazino)phenyl]-5,6-dihydro-6-methyl-1,3,4-thiadiazin-2(3H)one] | 2.19 | 10.5 | 4.8 | – | – | – | yes | 24 | 120 |
| CC1NC(=O)NN=C1c1ccc(NN=C(C#N)C#N)cc1 (stereo not drawn) [Example 43, 6-[4-(1,1-dicyanomethylidenehydrazino)phenyl]-4,5-dihydro-5-methyl-1,2,4-triazin-3(2H)one] | 2.00 | 2.4 | 1.2 | – | – | – | – | 17 | – |
| N#CC(C#N)=NNc1ccc(C2=NNC(=O)SC2)cc1 [Example 44, 5-[4-(1,1-dicyanomethylidenehydrazino)phenyl]-5,6-dihydro-1,3,4-thiadiazin-2(3H)one] | – | – | – | – | – | – | yes | 51 | 1100 |
| N#CC(C#N)=NNc1ccc(C2=NNC(=O)NC2)cc1 [Example 45, 6-[4-(1,1-dicyanomethylidenehydrazino)phenyl]-4,5-dihydro-1,2,4-triazin-3(2H)one] | 2.33 | 2.1 | 0.9 | – | – | – | – | – | – |
| N#CC(C#N)=NNc1ccc(C=CC2=NNC(=O)SC2)cc1 [Example 49, 5-[2-(4-(1,1-dicyanomethylidenehydrazino)phenyl)ethenyl]-5,6-dihydro-1,3,4-thiadiazin-2(3H)one] | 2.30 | 18.4 | 8.0 | – | 1100 | – | yes | 24 | – |
| O=C1CCC(c2ccc(Nc3ccncc3)cc2)=NN1 [MCI-154, reference compound] | 0.52 | 6.5 | 12.4 | 420 | – | – | – | – | – |
| CC1(C)C(=O)Nc2cc3[nH]c(-c4ccncc4)nc3cc21 [adibendan, reference compound] | 0.99 | 14.8 | 15.0 | 1000 | – | – | – | – | – |
| COc1ccc(-c2nc3ccc(C4=NNC(=O)CC4C)cc3[nH]2)cc1 (stereo not drawn) [pimobendan, reference compound] | 0.88 | 70.4 | 79.6 | 1750 | – | – | no | – | 3300 |
